Assay results as given in US4698431A, “Hydroxypyridonate chelating agents” (priority 1985, dated 1987).
Where “and” joins values, the source holds several entries; their conditions need not be identical. Equal entries are not always repeated. Entries after “also recorded” stand apart in the source; their conditions may differ.

What was measured:
[1] = Acute toxicity in mice, single i.p. injection; conditions: mouse, in vivo, ip, Table 3, 1000 (*) or 500 (**) μmole/kg, read-out: acute toxicity (asterisk), lethality in 7 days
Experimental: A test of acute toxicity was also carried out, as follows. Two mice were each given a single i.p. injection of 100, 500, or 1000 μmole/kg of ligand dissolved in 0.5 to 1.0 ml of saline at pH=7.5. Sparingly soluble ligands, dispersed by sonication, were given as finely divided suspensions. After 7 days observation, the mice were killed, selected tissues were removed and fixed for histopathological examination, and unusual findings at autopsy were recorded.
^a Single or double asterisks indicate acutely toxic (50% to 100%
lethality) in 7 days after a single i.p. injection of 1000 or 500
μmole/kg, respectively.

transferrin = assay: Removal of iron from transferrin; assay type: biochemical
Experimental: (§1) Removal of Iron From Transferrin: The effectiveness of 3HOPOCAM as a ferri ion chelator was evaluated in terms of its potential for removing iron from transferrin. In order to account for the effect of proton competitio in the ligand strength comparisons, the relative ironbinding abilities of the ligands were ranked by the pM value, defined as -log [Fe^+3 ] of pH 7.4 solution that is 10^-5 M in total ligand and 10^-6 M in total iron. The pM for 3HOPOCAM was determined (by binding competition experiments with EDTA) to be 21.7, about 4 to 14 units lower than the pM value for siderophores containing three bidentate catechol or hydroxamate groups. […] Ligands incorporating more than two "HOPO" groups should be effective in removing iron from transferrin at even lower concentrations.

[2] = Relative iron-binding ability (pM value) by binding competition with EDTA
Experimental: as §1

[3] = Promotion of excretion of ^238 Pu(IV) in mice; assay type: in vivo; conditions: for Pu / actinide removal, in words: mouse, in vivo
Experimental: The novel chelating agents of the present invention were tested for their effectiveness in promoting excretion of ^238 Pu(IV) in mice as follows. Groups of five mice each received an intravenous injection of […] of ^238 Pu(IV) in citrate buffer, 9250 Bq/kg body wt. One hour later 30 μmole/kg of ligand (120 μmole/kg of monomeric ligands) was injected intraperitoneally in 0.5 ml of saline. The mice were killed 24 h after the Pu injection, frozen, and dissected after partial thawing. The ^238 Pu in skeleton, tissues, and separated excreta was determined by counting of the ^234 U L xrays.
^c Ligand was administered (30 μmole/kg, i.p.) at 1 hr and mice
were killed at 24 hr after injection (i.v.) of ^238 Pu(IV) citrate.
Dosage of monomers, HOPO--CO2 H and HOPO--COMe2, was 120

[4] = Iron removal bioassay in iron-loaded (transfused) mice; assay type: in vivo
Experimental: DFHOPOCAM was tested for its effectiveness in removing iron from iron-loaded mice. The mice tested had undergone three transfusions over five days of heat-treated canine red blood cells. Both low i.p. doses (about 20 mg/kg) and high doses (about 200 mg/kg) were administered, in aqueous solution.
Changes in splenic, hepatic, fecal and urinary iron in transfused
male mice treated with potential iron chelators for several days

[5] = higher dose, about 200 mg/kg i.p.

O=C(NCCCN(CCCCN(CCCNC(=O)c1cccc(=O)n1O)C(=O)c1cccc(=O)n1O)C(=O)c1cccc(=O)n1O)c1cccc(=O)n1O [3,4,3-HOPOCAM] showed a mortality at 168 h [1] of 50 to 100%.
O=C(NCCCCN(CCCNC(=O)c1cccc(=O)n1O)C(=O)c1cccc(=O)n1O)c1cccc(=O)n1O [3,4-HOPOCAM] showed a mortality at 168 h [1] of 50 to 100%.
In the case of O=C(NCCCNC(=O)c1cccc(=O)n1O)c1cccc(=O)n1O [3-HOPOCAM], the “concentration at which iron was removed from transferrin” value (transferrin) is reported as “approximately mM concentrations”, the “iron removed from transferrin” value (transferrin; 30 min., 1.6 mM solution) is reported as “about 29%” and the “pM value (-log [Fe^+3 ])” value ([2]; pH 7.4, 10^-5 M total ligand, 10^-6 M total iron, competition with EDTA) is reported as 21.7.
With O=C(O)CN(CCN(CC(=O)O)CC(=O)O)CCN(CC(=O)O)CC(=O)O [CaNa3 --DTPA, reference compound] the “^238 Pu Excreta (urine and feces, one value)” value ([3]; ligand 30 μmole/kg i.p. at 1 hr, killed 24 hr after Pu) was 70% of injected ^238 Pu.
With CC(=O)N(O)CCCCCNC(=O)CCC(=O)N(O)CCCCCNC(=O)CCC(=O)N(O)CCCCCNC(=O)c1cccc(=O)n1O [DFHOPOCAM] the “Number Survivors” value ([4]; 20 mg/kg i.p.) was 10/10, the “Percent Iron Changes vs. Control, Feces” value ([4]; 20 mg/kg i.p.) was “+21%” and the “Percent Iron Changes vs. Control, Liver” value ([4]; 20 mg/kg i.p.) was -28%. For the same compound, the “Percent Iron Changes vs. Control, Spleen” value ([4]; 20 mg/kg i.p.) was -11%, the “Percent Iron Changes vs. Control, Urine” value ([4]; 20 mg/kg i.p.) was “+39%” and the “Potency vs. Standard” value ([4]; 20 mg/kg i.p.) was 4.5. For the same compound, the “Toxic Signs” value ([4]; 20 mg/kg i.p.) was “none”, the “Number Survivors” value ([4]; 200 mg/kg i.p.) was 10/10 and the “Percent Iron Changes vs. Control, Feces” value ([4]; 200 mg/kg i.p.) was “+4%”. The “Percent Iron Changes vs. Control, Liver” value ([4]; 200 mg/kg i.p.) was -59%, the “Percent Iron Changes vs. Control, Spleen” value ([4]; 200 mg/kg i.p.) was -17% and the “Percent Iron Changes vs. Control, Urine” value ([4]; 200 mg/kg i.p.) was “+93%”. The “Potency vs. Standard” value ([4]; 200 mg/kg i.p.) was 0.8, the “damage to excretory pathways from excess metabolic iron” value ([4]; about 20 and about 200 mg/kg i.p., daily excreta, five-day recovery period) was “reversal of most of the damage to excretory pathways” and the source of iron ([4]; both low and high doses) was “predominantly the liver”. The “Potency relative to Desferal” value ([4]; dose not given) was “about 4.5”, the “behavior and major organs” value [4, 5] was “not grossly affected” and the “change in fecal iron content, in words” value [4, 5] was “little change in iron content”. For the same compound, the “change in urine volume” value [4, 5] was -6%, the “decrease in liver iron” value [4, 5] was 59% and the “depression of fecal output” value [4, 5] was 24%. For the same compound, the “fall in liver weight” value [4, 5] was 14%, the “fall in spleen iron content” value [4, 5] was 17% and the “increase in spleen weight” value [4, 5] was 25%. For the same compound, the “rise in urinary iron” value [4, 5] was 93%, the “decrease in water imbibition” value ([4]; higher dose, about 200 mg/kg i.p., compared with low dose) was “about the same order of magnitude as that seen for the low dose” and the “major route of excretion” value ([4]; iron excretion) was “through the kidneys”. The behavior ([4]; low dose, about 20 mg/kg i.p.) was “not affected”, the “change in organ (spleen) weight, in words” value ([4]; low dose, about 20 mg/kg i.p.) was “not accompanied by a significant change in organ weight” and the “decline in hepatic (liver) weight” value ([4]; low dose, about 20 mg/kg i.p.) was 8%. The “decline in splenic iron” value ([4]; low dose, about 20 mg/kg i.p.) was 11%, the “decrease in hepatic iron” value ([4]; low dose, about 20 mg/kg i.p.) was 28% and the “fall in fecal output” value ([4]; low dose, about 20 mg/kg i.p.) was 8%. The “increase in excretion of iron via the feces” value ([4]; low dose, about 20 mg/kg i.p.) was 21%, the “increase in spleen weight” value ([4]; low dose, about 20 mg/kg i.p.) was 4% and the “increase in urinary iron” value ([4]; low dose, about 20 mg/kg i.p.) was 39%. For the same compound, the “necropsy: size or color of major organs” value ([4]; low dose, about 20 mg/kg i.p.) was “failed to reveal any changes in the size or color of major organs”, the “stimulation of urine production” value ([4]; low dose, about 20 mg/kg i.p.) was 24% and the “relative potency (highest fraction of iron excreted), ranking” value ([4]; mouse, in vivo) was “greatest”. The “toxicity to the kidneys, ranking” value ([4]; of a number of compounds tested) was “least toxic to the kidneys”, the “newly injected Pu excreted in 24 hr” value ([3]; 24 hr) was 86% and the “Pu / actinide removal, in words” value [3] was “extremely effective; also recorded: most effective removal of such ions”. The “Pu / actinide removal, in words” value ([3]; listed as HOPOsubstituted desferrioxamine) was “most effective Pu removal agent”.
With CC(=O)N(O)CCCCCNC(=O)CCC(=O)N(O)CCCCCNC(=O)CCC(=O)N(O)CCCCCN [Desferrioxamine, reference compound] the “Number Survivors” value ([4]; 250 mg/kg i.p.) was 240/240 and 150/150 and the “Toxic Signs” value ([4]; 250 mg/kg i.p.) was “none”.
In the case of O=C(NCc1cc(CNC(=O)c2cccc(=O)n2O)cc(CNC(=O)c2cccc(=O)n2O)c1)c1cccc(=O)n1O [HOPO--MECAM], the mortality at 168 h [1] is reported as 50 to 100%.
For “transferrin: transferrin, iron source in the iron removal test”, the “pM value (-log [Fe^+3 ]) of transferrin” value ([2]; pH 7.4, assuming [HCO3^- ]=0.024M) was “about 23.6”.
